Reference: PMC9646789, “Discovery of potential natural dihydroorotate dehydrogenase inhibitors and their synergism with brequinar via integrated molecular docking, dynamic simulations and in vitro approach” (Scientific Reports, 2022)
pIC50: −log10 of the molar value.

Molecular target: T1, human dihydroorotate dehydrogenase (hDHODH) (Homo sapiens, UniProt Q02127)
T1 construct: gene DHODH
Assay: biochemical

T1 sequence (Q02127 whole entry): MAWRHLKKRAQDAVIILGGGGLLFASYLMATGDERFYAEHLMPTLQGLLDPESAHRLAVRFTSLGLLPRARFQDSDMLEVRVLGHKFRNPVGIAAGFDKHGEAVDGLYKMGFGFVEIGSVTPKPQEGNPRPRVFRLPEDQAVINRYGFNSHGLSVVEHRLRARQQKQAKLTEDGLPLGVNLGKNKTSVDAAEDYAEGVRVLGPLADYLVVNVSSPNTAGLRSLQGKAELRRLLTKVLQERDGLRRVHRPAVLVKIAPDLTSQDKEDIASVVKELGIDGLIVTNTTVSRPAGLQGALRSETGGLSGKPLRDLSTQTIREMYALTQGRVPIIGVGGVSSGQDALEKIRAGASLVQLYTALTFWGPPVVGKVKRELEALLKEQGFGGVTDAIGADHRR

| pIC50 | Structure (SMILES) |
| --- | --- |
| 6.92 | COc1cc(C2Oc3cc([C@H]4Oc5cc(O)cc(O)c5C(=O)[C@@H]4O)ccc3OC2CO)ccc1O (some centres unmarked) [Silibinin] |
| 6.78 | COc1cc([C@H]2Oc3c(O)cc([C@H]4Oc5cc(O)cc(O)c5C(=O)[C@@H]4O)cc3[C@@H]2CO)ccc1O [Silychristin B] |
